The values below come from US20200032271A1, “COMBINATION THERAPY WITH LIPOSOMAL ANTISENSE OLIGONUCLEOTIDES” (Bio-Path Holdings, Inc., priority 2016, published 2020).

Data set [1] is described as follows: Plasma pharmacokinetics of Grb2 antisense oligo in patients. The settings on record: plasma. The protocol: Pharmacokinetic (PK) analysis was performed on plasma samples collected from refractory/relapsed patients diagnosed with AML receiving BP1001 (60 mg/m^2)+LDAC or receiving BP1001 (90 mg/m^2)+LDAC.
Blood samples for measurement of Grb2 antisense oligo concentrations were collected from patients in cohorts 7 and 8, at predose, 1, 2, 4, 6, 8, 24, 72 h post start-of-infusion (SOI). Urine samples for measurement of BP1001 concentrations were also collected from patients in cohorts 7 and 8, at start of dose-4 h, 4-8 h postdose, and 8-24 h postdose. PK blood samples were processed to plasma and analyzed using a validated method (Charles River Laboratories, Montreal, Canada) with a lower limit of quantitation (LLOQ; 0.5 ng/mL). Urine samples were analyzed using a validated method (Charles River Laboratories, Montreal, Canada) with a LLOQ of 1.00 ng/mL.
PK parameters were estimated using Phoenix pharmacokinetic software (Certara). A non-compartmental approach consistent with the IV infusion route of administration was used for parameter estimation, using an estimated infusion time of 2.5 h. All parameters were generated from Grb2 antisense oligo individual concentrations in plasma from Day 1 of Cycle 1, whenever practical. […] Parameters were estimated using nominal sampling times relative to the start of infusion. The area under the concentration vs. time curve (AUC) was calculated using the linear trapezoidal method with linear interpolation. The slope of the terminal elimination phase was determined using log linear regression on the unweighted concentration data.

Data set [2] has as its system BV173 cells. The data set can be described thus: Cell cycle analysis (7-AAD flow cytometry). It is filed as cell-based, human. As for the experimental part:
Cells were then fixed and permeabilized for 1 h at 4° C. with 1×Fixation/Permeabilization buffer (Ebioscience, San Diego, Calif., USA). After permeabilization, cells were washed and incubated with 7-aminoactinomycin D (7-AAD, Biolegend, San Diego, Calif., USA) in the dark at 4° C. for about 30 min. Flow cytometric data acquisition was acquired using BD FACSDiva™ software (BD Biosciences, San Jose, Calif., USA). The flow cytometer was set to collect 20,000 events. Relative percentages in the different cell cycle phases (sub-G1, G1, S, G2/M) were reported.
[…] Three days later, cells were harvested and processed for flow cytometry.
(In general: A flow cytometer gives signals particle by particle.)

In data set [3] the test system is BV173 cells.
Description: (§1) BV173 and K562 cells were seeded at 5 and 15×10^3 cells/well, respectively, in 96-well plates in 0.1 mL of medium. Cells were incubated with BP1001 and/or tyrosine kinase inhibitors for 4 days. The viability of untreated and treated leukemia cells was measured by the CellTiter-Glo® Luminescent Cell Viability Assay (Promega, Madison, Wis., USA). The CellTiter-Glo® Luminescent Cell Viability Assay determines the number of viable cells by quantitating the presence of ATP, an indicator of metabolically active cells.
Where [4] appears, read: tyrosine kinase inhibitor alone or after BP1001 pretreatment (FIG. 9A).
Where [5] appears, read: tyrosine kinase inhibitor alone or followed by BP1001 (FIG. 9B).
[6] abbreviates: BP1001 (120 μg/mL in the combination) 1 h before 1 nM dasatinib, four days.
The mark [7] stands for this setting: BP1001 (120 μg/mL in the combination) 1 day before dasatinib.
Setting [8] is: dasatinib 1 day, then BP1001 (120 μg/mL in the combination), read 3 days later.

Read-outs that look alike come from different tables or passages of the source. [PEt] = P-ethoxy (ethyl phosphotriester) internucleoside linkage

Description for K562 cells: as §1

For “5′-ATATTTGGCGATGGCTTC-3′ (DNA, all [PEt], methylation of C not given here) [Grb2 antisense oligo]”, the Tmax in data set [1] (60 mg/m^2 cohort) and in data set [1] (90 mg/m^2 cohort) was 1 h each time. Besides, the “decrease of Vz for the dose increase from 60 to 90 mg/m^2” value in data set [1] is recorded as “approximately 1.5 fold”. Further, the “increase of CL for the dose increase from 60 to 90 mg/m^2” value in data set [1] is “approximately 1.5 fold”.

For `COc1cc(Nc2c(C#N)cnc3cc(OCCCN4CCN(C)CC4)c(OC)cc23)c(Cl)cc1Cl` [bosutinib], the “percentage of cells in sub-G1 phase” value in the data set on BV173 cells [2] (setting [4]) is on record as 34.3%; in the data set with BV173 cells [2] (setting [5]), 66.1%.

As to `Cc1nc(Nc2ncc(C(=O)Nc3c(C)cccc3Cl)s2)cc(N2CCN(CCO)CC2)n1` [dasatinib], the “percentage of cells in sub-G1 phase” value came out at 10.6% in the data set on BV173 cells [2] (BP1001 1 day before dasatinib, harvested three days later (FIGS. 8A-D)); 30.7% in the data set on BV173 cells [2] (setting [4]); 64.1% with BV173 cells [2] (setting [5]). Moreover, the decrease of viability in the data set on K562 cells (setting [6]) was found to be 25%; with K562 cells (setting [7]) it was 25%; in the data set on K562 cells (setting [8]) it was 12%; with BV173 cells [3] (setting [6]), 40%; with BV173 cells [3] (setting [7]), 10%; in the data set on BV173 cells [3] (setting [8]), 6%.

For `Cc1cn(-c2cc(NC(=O)c3ccc(C)c(Nc4nccc(-c5cccnc5)n4)c3)cc(C(F)(F)F)c2)cn1` [nilotinib], the “percentage of cells in sub-G1 phase” value in the data set on BV173 cells [2] (setting [4]) is recorded as 26.4%; in the data set on BV173 cells [2] (setting [5]), 65.0%.

For `Cc1ccc(C(=O)Nc2ccc(CN3CCN(C)CC3)c(C(F)(F)F)c2)cc1C#Cc1cnc2cccnn12` [ponatinib], the “percentage of cells in sub-G1 phase” value was 34.0% in the data set on BV173 cells [2] (setting [4]) and 71.1% in the data set on BV173 cells [2] (setting [5]).
